The values below come from patent US10711041B2, “Lyophilisate containing a cyclic peptide of formula X1-[sequence]-X2” (priority 2013, dated 2020).

Data set [1] is described as follows: Concentration in lung tissue and blood after aerosol inhalation, rat. The format is in vivo. Particulars: after inhalation of aerosol. How it is done: The proof of a cyclic peptide of amino acid sequence SEQ ID NO:1 to SEQ ID NO:6 may take place in lung tissue of rats. For that exemplarily an aerosol was produced with a nebulizer from an aqueous solution of the cyclic peptide of amino acid sequence SEQ ID NO:1. The aerosol was inhaled by the experimental animal (72 mg/kg body weight). After termination of aerosol inhalation, the lung tissue, as well as the blood of the experimental animal was examined. By means of reverse HPLC/MS the concentration of the cyclic peptide of amino acid sequence SEQ ID NO:1 was determined Exemplarily, the cyclic peptide of amino acid sequence SEQ ID NO:1 could be detected in the lung tissue in a concentration of 1.2 μm/g after inhalation of 72 mg/kg body weight in sum. In contrast to that the cyclic peptide of amino acid sequence SEQ ID NO:1 could not be detected in the blood up to a detection limit of 0.1 μm/ml.

Data set [2] deals with T1, amilorid-sensitive Sodium Ion Channel (ENaC) (Homo sapiens, UniProt P37088).
T1 construct: Macroscopic Sodium Ion Currents were derived from human lung epithelian cells A549; endogenous in cells; host or cells: A549 human lung epithelial cells
T1 sequence (P37088 1-669): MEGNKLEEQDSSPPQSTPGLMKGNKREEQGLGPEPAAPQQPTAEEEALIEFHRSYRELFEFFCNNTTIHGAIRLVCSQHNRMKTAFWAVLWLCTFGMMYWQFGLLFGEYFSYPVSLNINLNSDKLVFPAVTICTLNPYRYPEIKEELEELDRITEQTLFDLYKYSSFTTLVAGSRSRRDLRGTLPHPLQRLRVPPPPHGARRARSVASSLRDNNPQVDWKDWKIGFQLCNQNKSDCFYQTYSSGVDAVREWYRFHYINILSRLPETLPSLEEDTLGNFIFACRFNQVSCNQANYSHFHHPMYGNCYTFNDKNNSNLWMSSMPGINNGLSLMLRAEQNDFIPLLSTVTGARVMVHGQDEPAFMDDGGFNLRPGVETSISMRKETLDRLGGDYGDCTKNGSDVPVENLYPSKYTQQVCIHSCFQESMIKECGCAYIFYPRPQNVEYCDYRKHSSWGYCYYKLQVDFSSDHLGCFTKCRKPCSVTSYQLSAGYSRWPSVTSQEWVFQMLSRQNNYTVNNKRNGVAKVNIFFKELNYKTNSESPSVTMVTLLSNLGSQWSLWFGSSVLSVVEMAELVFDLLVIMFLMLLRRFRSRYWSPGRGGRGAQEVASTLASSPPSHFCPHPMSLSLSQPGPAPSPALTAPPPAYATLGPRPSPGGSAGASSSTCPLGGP
T1 sequence (P51168 1-640 partner): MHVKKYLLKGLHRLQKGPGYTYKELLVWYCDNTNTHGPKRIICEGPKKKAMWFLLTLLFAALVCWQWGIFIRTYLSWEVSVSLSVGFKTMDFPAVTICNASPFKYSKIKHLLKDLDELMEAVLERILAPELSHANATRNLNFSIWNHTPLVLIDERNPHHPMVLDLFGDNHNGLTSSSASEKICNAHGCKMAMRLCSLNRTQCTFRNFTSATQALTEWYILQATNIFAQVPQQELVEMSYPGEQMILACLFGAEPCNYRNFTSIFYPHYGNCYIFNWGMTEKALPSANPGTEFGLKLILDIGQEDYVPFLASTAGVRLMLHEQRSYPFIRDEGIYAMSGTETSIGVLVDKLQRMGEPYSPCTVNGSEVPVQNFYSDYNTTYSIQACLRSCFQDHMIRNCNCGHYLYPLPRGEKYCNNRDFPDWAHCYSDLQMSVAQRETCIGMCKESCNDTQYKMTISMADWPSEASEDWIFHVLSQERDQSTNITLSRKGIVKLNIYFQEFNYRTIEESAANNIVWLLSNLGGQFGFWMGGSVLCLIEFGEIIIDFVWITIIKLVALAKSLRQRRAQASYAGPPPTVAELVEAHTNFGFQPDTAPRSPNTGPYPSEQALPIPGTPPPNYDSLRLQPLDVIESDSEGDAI
T1 sequence (P51170 1-649 partner): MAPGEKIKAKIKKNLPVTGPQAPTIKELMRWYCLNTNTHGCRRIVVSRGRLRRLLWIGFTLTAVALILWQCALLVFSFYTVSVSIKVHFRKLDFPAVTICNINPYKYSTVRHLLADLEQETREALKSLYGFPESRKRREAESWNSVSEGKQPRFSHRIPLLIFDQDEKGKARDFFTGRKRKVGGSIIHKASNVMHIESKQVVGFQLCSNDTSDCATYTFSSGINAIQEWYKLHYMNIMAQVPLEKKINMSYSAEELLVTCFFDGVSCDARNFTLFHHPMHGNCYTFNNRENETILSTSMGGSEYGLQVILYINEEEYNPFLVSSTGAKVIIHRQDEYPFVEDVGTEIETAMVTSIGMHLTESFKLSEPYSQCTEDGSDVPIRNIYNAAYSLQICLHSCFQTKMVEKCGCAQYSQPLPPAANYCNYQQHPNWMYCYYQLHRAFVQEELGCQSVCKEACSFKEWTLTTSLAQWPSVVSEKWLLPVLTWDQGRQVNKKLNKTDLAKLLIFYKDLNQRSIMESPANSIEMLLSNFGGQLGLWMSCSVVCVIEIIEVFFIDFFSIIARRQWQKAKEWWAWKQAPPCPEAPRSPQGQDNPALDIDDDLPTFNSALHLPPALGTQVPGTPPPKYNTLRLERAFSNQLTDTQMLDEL
The data set can be described thus: Patch Clamp whole cell sodium current in deglycosylated (PNGase F) and untreated A549 cells. The format is cell-based. Particulars: peptide 240 nM, Eh = −100 mV. How it is done: […] After control recordings, 240 nM of the peptide of amino acid sequence SEQ ID NO:1 was added to the bath solution. […] Whole cell currents were recorded at Eh=−100 mV. The concentration of the peptides of amino acid sequence SEQ ID NO:1 to SEQ ID NO:7 in the bath solution was 240 nM.

Bridges are numbered along the chain shown (N, C = ends). Where no end group is shown, it is not given here.

Turning to `C[C@@H]1NC(=O)CNC(=O)[C@H](CCC(=O)O)NC(=O)[C@@H]2CCCN2C(=O)[C@H]([C@@H](C)O)NC(=O)[C@H](CCC(=O)O)NC(=O)[C@H](CCCNC(=N)N)NC(=O)[C@H](CCC(N)=O)NC(=O)CNC(=O)[C@@H](N)CSSC[C@@H](C(=O)O)NC(=O)[C@H](Cc2ccc(O)cc2)NC(=O)[C@H](Cc2c[nH]c3ccccc23)NC(=O)[C@@H]2CCCN2C(=O)[C@H](CCCCN)NC(=O)[C@H](C)NC(=O)[C@H](CCC(=O)O)NC1=O` [SEQ ID NO: 1], the “concentration in lung tissue” value in data set [1] (72 mg/kg body weight in sum) is 1.2 μm/g. Besides, the concentration in blood in data set [1] (72 mg/kg, detection limit) was less than 0.1 μm/ml. Also, the “whole cell sodium current” value was 1073.3 ± 15.1 pA in data set [2] (no pretreatment with PNGase F) and 19.6 pA (n = 3) in data set [2] (pre-treatment with PNGase F).
Turning to “Cyclo(CGQREAPAGAAAKPWYC) (disulfide 1-17) [SEQ ID NO: 7, reference compound]”, the “whole cell sodium current” value in data set [2] (no pretreatment with PNGase F) is reported as “No activity”; in data set [2] (no pretreatment with PNGase F, listed as SEQ ID NO:7), “no activity”; in data set [2] (pre-treatment with PNGase F), “No activity”.
